Data from US20230140453A1, “METHOD FOR CONTROLLING OBESITY BY REGULATING ACTIVITY OF TREK1” (KOREA INSTITUTE OF SCIENCE AND TECHNOLOGY, priority 2021, published 2023).

Columns and labels:
[1] = tested on: 3T3L1 cell line; assay: Adipocyte differentiation inhibition by TREK1 activator (triglyceride amount) in 3T3L1 cells; format: cell-based; conditions: 10 μM, 25 μM
Procedure: (§1) 3T3-L1 cells were purchased from ATCC (American Type Culture Collection) and cultured in Dulbecco's Modified Eagle Medium (Gibco, N.Y., USA) with 10% (v/v) bovine serum (Gibco, N.Y., USA) and 1% v/v) penicillin/streptomycin (Thermo Fisher Scientific, N.J., USA). Cultures were maintained in a humidified 5% CO2 incubator at 37° C. After reaching 80% confluence, the differentiation of 3T3L1 cells was induced by replacing the medium with DMEM containing 10% FBS plus 1 μg/mL insulin, 0.5 mM isobutyl-1-methylxanthine (IBMX), 1 μM and 2 μM Rosiglitazone for 3 days. Afterward the medium was changed with DMEM containing 10% FBS plus 1 μg/mL insulin, and the cells were further cultured for 2 to 4 days. Culture medium contained a combination of IBMX, dexamethasone (Dex), insulin, rosiglitazone, and fetal bovine serum (FBS) to differentiate preadipocyte into mature adipocytes. After differentiation, experiments were conducted at three points. Each time the medium was changed over time, the cells were differentiated with IBMX medium for 3 days, and then changed to insulin medium every 2 days thereafter. As a result of confirmation by a microscope, the cell shape of 3T3-L1 was changed over time and intracellular lipid droplets were produced.
The 3T3L1 cell line, in which the same effect as in vivo and conditions was well confirmed, was treated with ML402, which has been reported to have an active effect on TREK1. Specifically, the cells were sampled on the 3rd, 5th, and 7th days by treating ML402 together from the time of differentiation at concentrations of 10 μM, 25 μM, and 100 μM, respectively.

[2] = tested on: 3T3L1 cell line; assay: Differentiation of 3T3L1 preadipocytes into adipocytes; format: cell-based
Procedure: The 3T3L1 cell line, a preadipocyte cell line, was treated with MDI (Dexamethasone, IBMX, insulin) as a differentiation-inducing agent, and differentiation was induced for 7 days, and the differentiation into adipocytes was confirmed by staining with oil red 0 (FIG. 1A).
as §1, with “As a result of confirmation by a microscope, the cell shape of 3T3-L1 was changed over time and intracellular lipid droplets were produced.” left out

[3] = tested on: 3T3L1 cells; assay: Intracellular calcium ion concentration in 3T3L1 preadipocytes; format: cell-based
Description: In summary, the activity of TREK1, which is a potassium ion channel, was decreased in the process of differentiation into adipocytes, and as a result, the cell membrane potential was depolarized, and voltage-dependent calcium ion channels were activated, resulting in increasing intracellular calcium ion concentration and promoting the differentiation of adipocytes.

[4] = tested on: 3T3L1 cell line; assay: Potassium ion conductivity by patch clamp in undifferentiated 3T3L1 cells; format: cell-based; conditions: undifferentiated condition, patch clamp (FIG. 2B)
Procedure: as §1, with “produced. […]” for “produced.”

[5] = tested on: primary cultured adipocytes; assay: Potassium conductivity and resting membrane potential in primary cultured adipocytes; format: cell-based, mouse (C57BL/6)
Procedure: (§2) The method for obtaining primary cultured adipocytes is as follows. Primary white adipocytes were isolated from inguinal WAT 6-8 week mouse (C57BL/6). The extracted WAT was washed in a 15 mL tube. The enzyme solution was mixed with collagenase Type II (Worthington Industries, Columbus, Ohio, USA) and PBS (Gibco, N.Y., USA), and the tissue was incubated in 20 mL enzyme solution in an incubator at 37° C. for 1 hour. After filtering, the tissue was added to a new 50 mL tube and centrifuged at 10,000 rpm for 10 minutes. The adipocytes floating in the solution were transferred to a new tube using a pipette. Then, the adipocytes were once more centrifuged in DMEM/F12 (Gibco, N.Y., USA) containing 10% (v/v) FBS. After transferring the fatty layer to the cell culture flask, and the flask was filled with DMEM/F12+mixture. The flask was inverted and incubated in a 37° C. CO2 incubator, and the medium was changed after about 5 days.

[6] = tested on: primary cultured adipocytes; assay: Differentiation of primary cultured adipocytes; format: cell-based, mouse (C57BL/6); conditions: primary cultured adipocytes treated with TREK1 inhibitor (FIG. 4 legend)
Procedure: as §2

Cc1cc(Cl)ccc1OCCNC(=O)c1cccs1 [ML402]
differentiation process ([1]; 3T3L1, 100 μM (FIG. 7)): inhibited in a concentration-dependent manner | amount of triglycerides ([1]; 3rd day, 100 μM from the time of differentiation, vs control group (FIG. 7)): did not show a significant difference | amount of triglycerides ([1]; 5th and 7th days, 100 μM from the time of differentiation (FIG. 7)): decreased in a concentration-dependent manner

COC(=O)C1=C(C)NC(C)=C(C(=O)OC)C1c1ccccc1[N+](=O)[O-] [nifedifine]
differentiation into adipocytes ([2]; with voltage-dependent calcium ion channel inhibitor, spadin-treated 3T3L1 (FIGS. 3D and 3E)): differentiation into adipocytes was also inhibited | spadin-induced increase in calcium ions ([3]; with voltage-dependent calcium ion channel inhibitor (FIGS. 3B and 3C)): effectively inhibited

spadin
potassium conductivity [4]: most of the potassium conductivity was decreased | degree of differentiation into adipocytes ([2]; treated in the process of differentiation of 3T3L1 (FIG. 2C)): the degree of differentiation was significantly increased | intracellular calcium ion concentration ([3]; 30 minutes after spadin treatment (FIG. 3A)): a significant increase in calcium ions | resting membrane potential ([5]; 1 μM concentration (FIG. 4C)): the resting membrane potential was also increased | potassium ion conductivity ([5]; 1 μM concentration (FIGS. 4A and 4B)): significantly decreased | differentiation into adipocytes [6]: differentiation into adipocytes is significantly increased
